Assay results taken from patent US5420287A, “1,2 diarylcyclopentenyl compounds for the treatment of inflammation” (G. D. Searle & Co., priority 1994, dated 1995).

System: carrageenan foot edema
Test: Rat Carrageenan Foot Pad Edema Test
Assay type: in vivo, Male Sprague-Dawley rats
Conditions: @ 10 mg/kg body weight, oral, 3 h after carrageenan injection, read-out: RAT PAW EDEMA % Inhibition
Experimental: One hour later a subplantar injection of 0.1 mL of 1% solution of carrageenan/sterile 0.9% saline was administered and the volume of the injected foot was measured with a displacement plethysmometer connected to a pressure transducer with a digital indicator.

Q: For `CS(=O)(=O)c1ccc(C2=C(c3ccc(F)cc3)CCC2)cc1` [Example 1, 1-[2-(4-fluorophenyl)cyclopenten-1-yl]-4-(methylsulfonyl)benzene], which inhibition in vivo at 10 mg/kg is on record?
A: The inhibition in vivo at 10 mg/kg was 33%.
